# From patent US20250026721A1, “COMPOUNDS AND METHODS FOR MODULATING RAS-PI3K” (Vividion Therapeutics, Inc., priority 2023, published 2025)
# Columns and labels:
# [1] = target: T1, PIK3CA (Homo sapiens, UniProt P42336); assay: In vitro ELISA target engagement assay for PIK3CA in Jurkat cellular lysate (competition with PIK3CA Biotin Probe); type: binding; settings: 1 hour at rt, then 500 nM PIK3CA Biotin Probe, read-out: Elisa Target Engagement Assay (TE50)
# T1 construct: endogenous in cells; host or cells: Jurkat cell lysate
# T1 sequence (P42336 whole entry): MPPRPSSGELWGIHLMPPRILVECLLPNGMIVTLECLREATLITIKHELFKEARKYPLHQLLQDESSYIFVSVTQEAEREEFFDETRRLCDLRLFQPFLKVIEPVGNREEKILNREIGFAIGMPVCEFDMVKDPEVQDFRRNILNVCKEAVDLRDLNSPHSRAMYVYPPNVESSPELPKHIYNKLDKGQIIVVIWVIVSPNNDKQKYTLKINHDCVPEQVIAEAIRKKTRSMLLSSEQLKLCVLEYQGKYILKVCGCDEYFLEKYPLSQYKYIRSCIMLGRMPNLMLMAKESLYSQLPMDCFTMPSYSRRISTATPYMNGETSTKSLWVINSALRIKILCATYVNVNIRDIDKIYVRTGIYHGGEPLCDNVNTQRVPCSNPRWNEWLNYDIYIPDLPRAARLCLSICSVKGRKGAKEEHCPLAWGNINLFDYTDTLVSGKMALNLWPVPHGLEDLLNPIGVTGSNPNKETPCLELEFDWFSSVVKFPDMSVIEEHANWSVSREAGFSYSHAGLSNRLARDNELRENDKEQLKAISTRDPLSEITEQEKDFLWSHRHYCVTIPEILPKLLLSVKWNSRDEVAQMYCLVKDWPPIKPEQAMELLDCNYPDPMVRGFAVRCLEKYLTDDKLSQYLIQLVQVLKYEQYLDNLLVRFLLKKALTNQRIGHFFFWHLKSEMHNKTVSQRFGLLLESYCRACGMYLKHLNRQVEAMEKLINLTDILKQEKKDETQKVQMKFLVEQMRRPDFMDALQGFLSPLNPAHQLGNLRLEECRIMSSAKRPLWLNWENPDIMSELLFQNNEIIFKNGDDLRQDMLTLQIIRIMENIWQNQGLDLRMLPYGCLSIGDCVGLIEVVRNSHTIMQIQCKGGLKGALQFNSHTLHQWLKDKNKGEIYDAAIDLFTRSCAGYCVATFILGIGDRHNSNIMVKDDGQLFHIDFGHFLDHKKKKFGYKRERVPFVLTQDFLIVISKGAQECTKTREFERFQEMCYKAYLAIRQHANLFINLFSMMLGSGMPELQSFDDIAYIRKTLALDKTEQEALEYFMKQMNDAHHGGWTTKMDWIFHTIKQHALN
# T1 sequence (P27986 whole entry partner): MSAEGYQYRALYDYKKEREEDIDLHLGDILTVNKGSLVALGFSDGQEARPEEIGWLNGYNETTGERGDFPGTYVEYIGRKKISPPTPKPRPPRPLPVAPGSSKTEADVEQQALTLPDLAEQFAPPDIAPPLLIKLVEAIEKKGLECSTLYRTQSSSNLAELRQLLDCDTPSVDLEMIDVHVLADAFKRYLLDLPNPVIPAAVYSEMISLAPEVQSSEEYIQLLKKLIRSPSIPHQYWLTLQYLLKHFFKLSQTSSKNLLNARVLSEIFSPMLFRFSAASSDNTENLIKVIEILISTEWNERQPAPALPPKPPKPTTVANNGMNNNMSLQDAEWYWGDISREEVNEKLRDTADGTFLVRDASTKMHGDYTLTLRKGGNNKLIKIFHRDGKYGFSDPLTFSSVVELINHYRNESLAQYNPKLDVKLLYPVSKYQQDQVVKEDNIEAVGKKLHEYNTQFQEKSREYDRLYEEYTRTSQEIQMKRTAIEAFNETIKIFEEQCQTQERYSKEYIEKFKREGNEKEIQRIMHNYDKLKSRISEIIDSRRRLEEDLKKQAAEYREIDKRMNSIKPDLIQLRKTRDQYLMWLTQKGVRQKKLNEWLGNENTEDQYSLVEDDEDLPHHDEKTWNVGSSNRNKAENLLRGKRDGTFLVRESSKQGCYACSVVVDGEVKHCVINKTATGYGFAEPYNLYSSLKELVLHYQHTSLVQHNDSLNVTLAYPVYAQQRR
# How it was run: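 Jurkat lysate from sonicated frozen cells was preincubated 1 h at rt with serially diluted compound up to 200 μM, then labelled 1 h at rt with PIK3CA biotin probe at 500 nM final. Probe-bound PIK3CA was captured on antibody-coated plates and detected with Neutravidin-HRP luminescence; TE50 derived from the dose response.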
# [2] = test system: pAKT(S473) in FaDu cell line; assay: In vitro Phospho-AKT(S473) HTRF analysis in FaDu cells; type: cell-based; settings: Homo sapiens, 0.5 h; for IC50: FaDu cells, 30 minutes at 37° C.; for Emax: FaDu, read-out: FaDu pAKT Imax % control
# Method: Example 5. In Vitro Phosgho-AKT(S473) Analysis
# Functional activity of the compounds to inhibit pAKT were assessed in FaDu or H358 cell lines as indicated below.
# • Complete Media • FBS, Corning catalog #35-010-CV • Anti-Anti, Gibco catalog #15240-062 • 96 well plate, Corning catalog #3610 • TrypLE, Gibco catalog #12604013 • Phospho-AKT(S473) HTRF kit, Cisbio catalog #64AKSPET
# Cells were detached from the tissue culture flask with TrypLE. The cells were pelleted at 500×g for 5 min, TrypLe was removed and then resuspended in the necessary volume of media+1% FBS to give the appropriate cell density (17,500 cells/mL for FaDu; 20,000 cells/mL for H358). 100 μL of cell suspension/well was dispensed into the 96-well plate while keeping the outer wells of the plate free of cells and filled with PBS to prevent evaporation of interior wells. The plate was incubated at 37° C. and allowed to adhere overnight. The cells were treated with a dose response of compound and incubated at 37° C. for 30 minutes. The cells were then processed and pAKT(S473) levels were assessed following the specifications of the Cisbio HTRF kit.
# [3] = target: T2, PIK3CA_C242 (Homo sapiens, UniProt P42336); assay: Proteomic TE50 (IA-DTB / TMT mass spectrometry) in Jurkat cell lysate; type: binding; settings: 1 hour at rt, 7-point dose response
# T2 construct: endogenous in cells; host or cells: Jurkat cell lysate
# T2 sequence (P42336 whole entry): as the sequence (P42336 whole entry) above
# T2 sequence (P27986 whole entry partner): as the sequence (P27986 whole entry partner) above
# How it was run: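 Jurkat lysate (500 μg) treated with compound (7-point, 1:5 dilutions) for 1 h at rt, then labelled with 200 μM IA-DTB for 1 h. After digestion and streptavidin enrichment, the C242 peptide was quantified by targeted MS3 TMT. TE50 was derived from reporter-ion S/N dose-response curves.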
Compound,IC50 [1],IC50 [2],Emax [2],IC50 [3]
"C[C@@H](NC(=O)C1(F)CCN(S(=O)(=O)c2ccc(Br)cc2-c2ccccc2Cl)CC1)C1=CS(=O)(=O)C1 (single isomer, unassigned) [Compound 234, (*R)-1-((5-bromo-2′-chloro-[1,1′-biphenyl]-2-yl)sulfonyl)-N-(1-(1,1-dioxido-2H-thiet-3-yl)ethyl)-4-fluoropiperidine-4-carboxamide]",140 nM,100 nM,,
"C[C@H](/C=C\S(C)(=O)=O)NC(=O)[C@@]1(F)CCCN(C(=O)[C@H]2CN(CC(F)(F)F)C[C@H]2c2cc(F)ccc2Cl)CC1 (single isomer, unassigned) [Compound 166, (R)-1-((3*R,4*R)-4-(2-chloro-5-fluorophenyl)-1-(2,2,2-trifluoroethyl)pyrrolidine-3-carbonyl)-4-fluoro-N-((R,Z)-4-(methylsulfonyl)but-3-en-2-yl)azepane-4-carboxamide]",300 nM,187 nM,78.9%,
"C[C@H](/C=C\S(C)(=O)=O)NC(=O)[C@@]1(F)CCCN(C(=O)[C@H]2CN(CC(F)(F)F)C[C@H]2c2ccc(F)cc2Cl)CC1 (single isomer, unassigned) [Compound 167, (R)-1-((3*R,4*R)-4-(2-chloro-4-fluorophenyl)-1-(2,2,2-trifluoroethyl)pyrrolidine-3-carbonyl)-4-fluoro-N-((R,Z)-4-(methylsulfonyl)but-3-en-2-yl)azepane-4-carboxamide]",580 nM,518 nM,93.6%,
"C[C@@H](/C=C\S(C)(=O)=O)NC(=O)C1(F)CCN(S(=O)(=O)c2cnc(C(F)(F)F)cc2-c2cccc(F)c2Cl)CC1 [Compound 210, (S,Z)-1-((4-(2-chloro-3-fluorophenyl)-6-(trifluoromethyl)pyridin-3-yl)sulfonyl)-4-fluoro-N-(4-(methylsulfonyl)but-3-en-2-yl)piperidine-4-carboxamide]",110 nM,214 nM,,
"CC(O)c1ccc(S(=O)(=O)N2CCC(F)(C(=O)N[C@H](C)/C=C/C(=O)N3CC(F)(F)C3)CC2)c(-c2ccccc2Cl)c1 (stereo partly drawn) [Compound 140, 1-((2′-chloro-5-(1-hydroxyethyl)-[1,1′-biphenyl]-2-yl)sulfonyl)-N-((R,E)-5-(3,3-difluoroazetidin-1-yl)-5-oxopent-3-en-2-yl)-4-fluoropiperidine-4-carboxamide]",350 nM,427 nM,87.7%,
"COCc1ccc(S(=O)(=O)N2CC[C@@](F)(C(=O)N[C@H](C)/C=C/C(=O)N3CC(F)(F)C3)C[C@H]2C)c(-c2ccccc2Cl)c1 [Compound 156, (2R,4S)-1-((2′-chloro-5-(methoxymethyl)-[1,1′-biphenyl]-2-yl)sulfonyl)-N-((R,E)-5-(3,3-difluoroazetidin-1-yl)-5-oxopent-3-en-2-yl)-4-fluoro-2-methylpiperidine-4-carboxamide]",520 nM,348 nM,99.2%,
"CC(C)(/C=C/C(=O)N1CC(F)(F)C1)NC(=O)C1(F)CCN(S(=O)(=O)c2ccc(C(F)(F)F)cc2-c2ccccc2Cl)CC1 [Compound 249, (E)-1-((2′-chloro-5-(trifluoromethyl)-[1,1′-biphenyl]-2-yl)sulfonyl)-N-(5-(3,3-difluoroazetidin-1-yl)-2-methyl-5-oxopent-3-en-2-yl)-4-fluoropiperidine-4-carboxamide]",620 nM,1200 nM,82.8%,
"[2H]C([2H])([2H])Oc1ccc(S(=O)(=O)N2CC[C@@](F)(C(=O)N[C@H](C)/C=C\S(C)(=O)=O)C[C@H]2C)c(-c2ccccc2Cl)c1 [Compound 301, (2R,4S)-1-((2′-chloro-5-(methoxy-d3)-[1,1′-biphenyl]-2-yl)sulfonyl)-4-fluoro-2-methyl-N-((R,Z)-4-(methylsulfonyl)but-3-en-2-yl)piperidine-4-carboxamide]",77 nM,117 nM,99.8%,
"C[C@H](/C=C\S(C)(=O)=O)NC(=O)[C@]1(F)CCN(S(=O)(=O)c2ccc(Br)cc2-c2cccc(Cl)c2)[C@H](C)C1 [Compound 145, (2R,4S)-1-((5-bromo-3′-chloro-[1,1′-biphenyl]-2-yl)sulfonyl)-4-fluoro-2-methyl-N-((R,Z)-4-(methylsulfonyl)but-3-en-2-yl)piperidine-4-carboxamide]",270 nM,131 nM,102%,
"C[C@H](/C=C\S(C)(=O)=O)NC(=O)[C@@]1(F)CCCN(C(=O)c2ccc(Br)cc2-c2ccccc2Cl)CC1 [Compound 241, (R)-1-(5-bromo-2′-chloro-[1,1′-biphenyl]-2-carbonyl)-4-fluoro-N-((R,Z)-4-(methylsulfonyl)but-3-en-2-yl)azepane-4-carboxamide]",62 nM,281 nM,95.3%,
"CCOc1ccc(S(=O)(=O)N2CC[C@@](F)(C(=O)N[C@H](C)/C=C\S(C)(=O)=O)C[C@H]2C)c(-c2ccccc2Cl)c1 [Compound 299, (2R,4S)-1-((2′-chloro-5-ethoxy-[1,1′-biphenyl]-2-yl)sulfonyl)-4-fluoro-2-methyl-N-((R,Z)-4-(methylsulfonyl)but-3-en-2-yl)piperidine-4-carboxamide]",210 nM,146 nM,99.6%,
"COCc1ccc(S(=O)(=O)N2CC[C@@](F)(C(=O)N[C@H](C)/C=C\S(C)(=O)=O)C[C@H]2C)c(-c2ccccc2Cl)c1 [Compound 149, (2R,4S)-1-((2′-chloro-5-(methoxymethyl)-[1,1′-biphenyl]-2-yl)sulfonyl)-4-fluoro-2-methyl-N-((R,Z)-4-(methylsulfonyl)but-3-en-2-yl)piperidine-4-carboxamide]",161 nM,248 nM,109%,
"C[C@H](/C=C/S(C)(=O)=O)NC(=O)[C@@]1(F)CCCN(C(=O)[C@H]2CN(CC(F)(F)F)C[C@H]2c2ccccc2Cl)CC1 [Compound 177, (R)-1-((3R,4R)-4-(2-chlorophenyl)-1-(2,2,2-trifluoroethyl)pyrrolidine-3-carbonyl)-4-fluoro-N-((R,E)-4-(methylsulfonyl)but-3-en-2-yl)azepane-4-carboxamide]",790 nM,672 nM,69.5%,
"C[C@H](/C=C/C(=O)N1CC(F)(F)C1)NC(=O)[C@]1(F)CCN(S(=O)(=O)c2ccc(Br)cc2-c2cccc(Cl)c2)[C@H](C)C1 [Compound 155, (2R,4S)-1-((5-bromo-3′-chloro-[1,1′-biphenyl]-2-yl)sulfonyl)-N-((R,E)-5-(3,3-difluoroazetidin-1-yl)-5-oxopent-3-en-2-yl)-4-fluoro-2-methylpiperidine-4-carboxamide]",300 nM,305 nM,106%,
"O=C(/C=C\CNC(=O)C1(F)CCN(S(=O)(=O)c2ccc(Br)cc2-c2ccccc2Cl)CC1)N1CC(F)(F)C1 [Compound 285, (Z)-1-((5-bromo-2′-chloro-[1,1′-biphenyl]-2-yl)sulfonyl)-N-(4-(3,3-difluoroazetidin-1-yl)-4-oxobut-2-en-1-yl)-4-fluoropiperidine-4-carboxamide]",54.1 nM,124 nM,,
"C[C@H](/C=C\S(C)(=O)=O)NC(=O)C1(F)CCN(C(=O)[C@H]2CN(CC(F)F)C[C@H]2c2ccccc2Cl)CC1 [Compound 206, 1-((3R,4R)-4-(2-chlorophenyl)-1-(2,2-difluoroethyl)pyrrolidine-3-carbonyl)-4-fluoro-N-((R,Z)-4-(methylsulfonyl)but-3-en-2-yl)piperidine-4-carboxamide]",800 nM,718 nM,106%,
"Cc1ccc(Cl)c([C@@H]2CN(CC(F)(F)F)C[C@@H]2C(=O)N2CCC[C@](F)(C(=O)N[C@H](C)/C=C\S(C)(=O)=O)CC2)c1 (single isomer, unassigned) [Compound 170, (R)-1-((3*R,4*R)-4-(2-chloro-5-methylphenyl)-1-(2,2,2-trifluoroethyl)pyrrolidine-3-carbonyl)-4-fluoro-N-((R,Z)-4-(methylsulfonyl)but-3-en-2-yl)azepane-4-carboxamide]",760 nM,484 nM,83.2%,
"C[C@@H](/C=C\S(C)(=O)=O)NC(=O)C1(F)CCN(S(=O)(=O)c2ccc(Br)cc2-c2ccccc2Cl)CC1 [Compound 62, (S,Z)-1-((5-bromo-2′-chloro-[1,1′-biphenyl]-2-yl)sulfonyl)-4-fluoro-N-(4-(methylsulfonyl)but-3-en-2-yl)piperidine-4-carboxamide]",,27.5 nM,85.2%,
"C[C@H](/C=C/C(=O)N1CC(F)(F)C1)NC(=O)C1(F)CCN(S(=O)(=O)c2ccc(Br)cc2-c2ccccc2Cl)CC1 [Compound 135, (R,E)-1-((5-bromo-2′-chloro-[1,1′-biphenyl]-2-yl)sulfonyl)-N-(5-(3,3-difluoroazetidin-1-yl)-5-oxopent-3-en-2-yl)-4-fluoropiperidine-4-carboxamide]",87.2 nM,,,120 nM
